Measured values reported in US12404244B2, “Pan-KIT kinase inhibitor having quinoline structure and application thereof” (Tarapeutics Science Inc., priority 2018, dated 2025).

Assays:
[1] = tested on: TEL-KIT/T670I-BaF3; test: Proliferation of TEL-KIT/T670I-BaF3 cells (CCK-8); format: cell-based, mouse; settings: Mus musculus, 72 h, read-out: GI50 TEL-KIT/T670I-BaF3
Excerpt: (§1) Compounds as provided herein were further evaluated for their inhibitory effects on proliferation of cancer cells by testing their effects on growth of cancer cells. In this example the following cells were used: primary mouse B cells BaF3 (purchased from ATCC), GIST-T1 cells of the human gastrointestinal stromal tumor cell line (expressing wild-type KIT gene) (purchased from Cosmo Bio Co., Ltd. (Japan)). The present lab further constructed and used the following: mouse Tel-Kit-BaF3 (stably expressing KIT wild-type kinase), mouse Tel-Kit/T670I-BaF3 (stably expressing KIT T670I mutant kinase), mouse Tel-Kit/V559A-BaF3 (stably expressing KIT V559A mutant kinase), mouse Tel-Kit/V559D-BaF3 (stably expressing KIT V559D mutant kinase), mouse Tel-Kit/V559G-BaF3 (stably expressing KIT V559G mutant kinase), mouse Tel-Kit/V560D-BaF3 (stably expressing KIT V560D mutant kinase), mouse Tel-Kit/L576P-BaF3 (stably expressing KIT L576P mutant kinase), mouse Tel-Kit/V654A-BaF3 (stably expressing KIT V654A mutant kinase), mouse Tel-Kit/V654A/V559D-BaF3 (stably expressing KIT V654A V559D mutant kinase), mouse Tel-Kit/T670E-BaF3 (stably expressing KIT T670E mutant kinase), mouse Tel-Kit/T670I/V559D-BaF3 (stably expressing KIT T670I V559D mutant kinase), mouse Tel-Kit/S709F-BaF3 (stably expressing KIT S709F mutant kinase), mouse Tel-Kit/D816E-BaF3 (stably expressing KIT D816E mutant kinase), mouse Tel-Kit/D816H-BaF3 (stably expressing KIT D816H mutant kinase), mouse Tel-Kit/D820E-BaF3 (stably expressing KIT D820E mutant kinase), mouse Tel-Kit/D820G-BaF3 (stably expressing KIT D820G mutant kinase), mouse Tel-Kit/D820Y-BaF3 (stably expressing KIT D820Y mutant kinase), mouse Tel-Kit/N822K-BaF3 (stably expressing KIT N822K mutant kinase), mouse Tel-Kit/Y823D-BaF3 (stably expressing KIT Y823D mutant kinase), mouse Tel-Kit/A829P-BaF3 (stably expressing KIT A829P mutant kinase), GIST-T1-T670I cells of the human gastrointestinal stromal tumor cell line (expressing KIT-T670I mutant gene). The above cell lines were constructed by: amplifying respectively the sequences of human KIT and various mutant kinase regions of KIT via PCR, inserting the fragments respectively into MSCV-Puro vectors having a N-terminal TEL fragment and/or a NPM fragment and/or a TPR fragment (purchased from Clontech), transfecting mouse BaF3 cells with the vectors by means of retrovirus to obtain stably transfected cells, removing the growth factor IL-3, and thereby eventually obtaining cell lines that depend on the transferred protein KIT or various mutants of KIT. The GIST-T1-T670I (expressing C-KIT-T670I mutant gene) cell line was constructed by our laboratory as follows: designing sgRNA that targeted a region around T670 of the KIT gene with CRISPR Design Tool (website: crispr.mit.edu, Zhang Feng Lab), cloning it into pSpCas9(BB)-2A-Puro vector; co-transfecting cells with the resultant vector and a single-stranded oligonucleotide having T670I site mutation that is near to T670, subjecting the resultant to antibiotics screening, followed by dilution, and monocellular culture in a 96-well plate; validating the site T670 of the cells by sequence detection via Sanger sequencing.

[2] = tested on: TEL-KIT/V559D-BaF3; test: Proliferation of TEL-KIT/V559D-BaF3 cells (CCK-8); format: cell-based; settings: Mus musculus, 72 h, read-out: GI50 TEL-KIT/V559D-BaF3
Excerpt: as §1, with “The GIST-T1-T670I (expressing C-KIT-T670I mutant gene) cell line was constructed by our laboratory as follows: designing sgRNA that targeted a region around T670 of the KIT gene with CRISPR Design Tool (website: crispr.mit.edu, Zhang Feng Lab), cloning it into pSpCas9(BB)-2A-Puro vector; co-transfecting cells with the resultant vector and a single-stranded oligonucleotide having T670I site mutation that is near to T670, subjecting the resultant to antibiotics screening, followed by dilution, and monocellular culture in a 96-well plate; validating the site T670 of the cells by sequence detection via Sanger sequencing.” left out

[3] = tested on: TEL-KIT/V559G-BaF3; test: Proliferation of TEL-KIT/V559G-BaF3 cells (CCK-8); format: cell-based; settings: Mus musculus, 72 h, read-out: GI50 TEL-KIT/V559G-BaF3
Excerpt: as §1, with “The GIST-T1-T670I (expressing C-KIT-T670I mutant gene) cell line was constructed by our laboratory as follows: designing sgRNA that targeted a region around T670 of the KIT gene with CRISPR Design Tool (website: crispr.mit.edu, Zhang Feng Lab), cloning it into pSpCas9(BB)-2A-Puro vector; co-transfecting cells with the resultant vector and a single-stranded oligonucleotide having T670I site mutation that is near to T670, subjecting the resultant to antibiotics screening, followed by dilution, and monocellular culture in a 96-well plate; validating the site T670 of the cells by sequence detection via Sanger sequencing.” left out

[4] = tested on: TEL-KIT/V560D-BaF3; test: Proliferation of TEL-KIT/V560D-BaF3 cells (CCK-8); format: cell-based; settings: Mus musculus, 72 h, read-out: GI50 TEL-KIT/V560D-BaF3
Excerpt: as §1, with “The GIST-T1-T670I (expressing C-KIT-T670I mutant gene) cell line was constructed by our laboratory as follows: designing sgRNA that targeted a region around T670 of the KIT gene with CRISPR Design Tool (website: crispr.mit.edu, Zhang Feng Lab), cloning it into pSpCas9(BB)-2A-Puro vector; co-transfecting cells with the resultant vector and a single-stranded oligonucleotide having T670I site mutation that is near to T670, subjecting the resultant to antibiotics screening, followed by dilution, and monocellular culture in a 96-well plate; validating the site T670 of the cells by sequence detection via Sanger sequencing.” left out

[5] = tested on: TEL-KIT/L576P-BaF3; test: Proliferation of TEL-KIT/L576P-BaF3 cells (CCK-8); format: cell-based; settings: Mus musculus, 72 h, read-out: GI50 TEL-KIT/L576P-BaF3
Excerpt: Compounds as provided herein were further evaluated for their inhibitory effects on proliferation of cancer cells by testing their effects on growth of cancer cells. In this example the following cells were used: primary mouse B cells BaF3 (purchased from ATCC), GIST-T1 cells of the human gastrointestinal stromal tumor cell line (expressing wild-type KIT gene) (purchased from Cosmo Bio Co., Ltd. (Japan)). The present lab further constructed and used the following: mouse Tel-Kit-BaF3 (stably expressing KIT wild-type kinase), mouse Tel-Kit/T670I-BaF3 (stably expressing KIT T670I mutant kinase), mouse Tel-Kit/V559A-BaF3 (stably expressing KIT V559A mutant kinase), mouse Tel-Kit/V559D-BaF3 (stably expressing KIT V559D mutant kinase), mouse Tel-Kit/V559G-BaF3 (stably expressing KIT V559G mutant kinase), mouse Tel-Kit/V560D-BaF3 (stably expressing KIT V560D mutant kinase), mouse Tel-Kit/L576P-BaF3 (stably expressing KIT L576P mutant kinase), mouse Tel-Kit/V654A-BaF3 (stably expressing KIT V654A mutant kinase), mouse Tel-Kit/V654A/V559D-BaF3 (stably expressing KIT V654A V559D mutant kinase), mouse Tel-Kit/T670E-BaF3 (stably expressing KIT T670E mutant kinase), mouse Tel-Kit/T670I/V559D-BaF3 (stably expressing KIT T670I V559D mutant kinase), mouse Tel-Kit/S709F-BaF3 (stably expressing KIT S709F mutant kinase), mouse Tel-Kit/D816E-BaF3 (stably expressing KIT D816E mutant kinase), mouse Tel-Kit/D816H-BaF3 (stably expressing KIT D816H mutant kinase), mouse Tel-Kit/D820E-BaF3 (stably expressing KIT D820E mutant kinase), mouse Tel-Kit/D820G-BaF3 (stably expressing KIT D820G mutant kinase), mouse Tel-Kit/D820Y-BaF3 (stably expressing KIT D820Y mutant kinase), mouse Tel-Kit/N822K-BaF3 (stably expressing KIT N822K mutant kinase), mouse Tel-Kit/Y823D-BaF3 (stably expressing KIT Y823D mutant kinase), mouse Tel-Kit/A829P-BaF3 (stably expressing KIT A829P mutant kinase), GIST-T1-T670I cells of the human gastrointestinal stromal tumor cell line (expressing KIT-T670I mutant gene). […]

[6] = tested on: TEL-KIT/V654A-BaF3; test: Proliferation of TEL-KIT/V654A-BaF3 cells (CCK-8); format: cell-based; settings: Mus musculus, 72 h, read-out: GI50 TEL-KIT/V654A-BaF3
Excerpt: as §1, with “The GIST-T1-T670I (expressing C-KIT-T670I mutant gene) cell line was constructed by our laboratory as follows: designing sgRNA that targeted a region around T670 of the KIT gene with CRISPR Design Tool (website: crispr.mit.edu, Zhang Feng Lab), cloning it into pSpCas9(BB)-2A-Puro vector; co-transfecting cells with the resultant vector and a single-stranded oligonucleotide having T670I site mutation that is near to T670, subjecting the resultant to antibiotics screening, followed by dilution, and monocellular culture in a 96-well plate; validating the site T670 of the cells by sequence detection via Sanger sequencing.” left out

[7] = tested on: TEL-KIT/T670E-BaF3; test: Proliferation of TEL-KIT/T670E-BaF3 cells (CCK-8); format: cell-based; settings: Mus musculus, 72 h, read-out: GI50 TEL-KIT/T670E-BaF3
Excerpt: as §1, with “The GIST-T1-T670I (expressing C-KIT-T670I mutant gene) cell line was constructed by our laboratory as follows: designing sgRNA that targeted a region around T670 of the KIT gene with CRISPR Design Tool (website: crispr.mit.edu, Zhang Feng Lab), cloning it into pSpCas9(BB)-2A-Puro vector; co-transfecting cells with the resultant vector and a single-stranded oligonucleotide having T670I site mutation that is near to T670, subjecting the resultant to antibiotics screening, followed by dilution, and monocellular culture in a 96-well plate; validating the site T670 of the cells by sequence detection via Sanger sequencing.” left out

SMILES: COc1cc2nccc(Oc3ccc(NC(=O)Cc4ccc(C)c(C(F)(F)F)c4)cc3)c2cc1OC [Example 1, N-(4-((6,7-dimethoxyquinolin-4-yl)oxy)phenyl)-2-(4-methyl-3-(trifluoromethyl)phenyl)acetamide]
- GI50 [1]: 14 nM
- GI50 [2]: 4 nM
- GI50 [3]: < 0.3 nM
- GI50 [4]: 5 nM
- GI50 [5]: 2 nM
- GI50 [6]: 110 nM
- GI50 [7]: 53 nM
